Experiment: Solvent evaporation of nanoemulsion, crystal formation (electron microscopy)
Type: physicochemical
Conditions: evaporation performed after the beads formation, FIG. 4
Experimental: The organic solvent (toluene) was evaporated with Rotavapor (R-114 BUCHI) from the emulsion to form a dispersion of lipophilic drug in water. The organic solvent evaporation was performed in four steps, water was added up to the initial weight after each step.

drug particle state after solvent evaporation: remain as nanoparticles
Structure (SMILES): CCC(C)(C)C(=O)O[C@H]1C[C@@H](C)C=C2C=C[C@H](C)[C@H](CC[C@@H]3C[C@@H](O)CC(=O)O3)[C@H]21 [simvastatine]

Source: patent US20080038333A1, “Formulations For Poorly Soluble Drugs” (Bio-Dar Ltd., priority 2004, published 2008)
